Test results from US8343977B2, “Substituted triazolo-pyrimidine compounds” (ArQule, Inc., priority 2009, dated 2013).

Key:
[1] = target: T1, Tec kinase (Homo sapiens, UniProt P42680); experiment: Tec Kinase Activity Assay; assay type: biochemical; conditions: test concentration not given
T1 sequence (P42680 1-631): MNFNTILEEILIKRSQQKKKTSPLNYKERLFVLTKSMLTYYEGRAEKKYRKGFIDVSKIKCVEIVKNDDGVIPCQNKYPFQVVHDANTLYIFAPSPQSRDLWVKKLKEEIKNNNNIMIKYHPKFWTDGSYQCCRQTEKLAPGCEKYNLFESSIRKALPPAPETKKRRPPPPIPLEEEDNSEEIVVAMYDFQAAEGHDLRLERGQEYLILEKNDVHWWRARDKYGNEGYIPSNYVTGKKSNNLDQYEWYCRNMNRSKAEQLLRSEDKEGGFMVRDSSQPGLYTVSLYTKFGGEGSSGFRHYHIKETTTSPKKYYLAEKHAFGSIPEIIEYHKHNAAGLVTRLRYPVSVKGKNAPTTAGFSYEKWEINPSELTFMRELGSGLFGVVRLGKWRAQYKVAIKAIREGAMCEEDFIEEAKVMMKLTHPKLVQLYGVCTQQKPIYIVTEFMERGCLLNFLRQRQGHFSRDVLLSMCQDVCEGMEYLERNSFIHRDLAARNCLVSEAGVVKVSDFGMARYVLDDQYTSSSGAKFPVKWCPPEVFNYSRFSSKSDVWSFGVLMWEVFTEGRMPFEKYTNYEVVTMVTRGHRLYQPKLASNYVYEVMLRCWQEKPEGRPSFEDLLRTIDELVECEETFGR
Protocol: Tec Kinase Activity Assay
(§1) The disclosed compounds were assayed for their ability to inhibit the activity of Tec kinase. Nunc Maxisorb plates were coated with streptavidin by overnight incubation with 100 μL per well of 1 μg/mL Streptavidin in DPBS. Prior to the start of the experiment, the plates were washed with TBST (3×200 μL) and blocked for at least 1 hour by adding 150 μL of 5% BSA/TBST. The plates were washed with TBST (3×200 μL/well) and left dry immediately before the capture step.
The test articles and controls (Staurosporine and Sutent) were prepared using the following assay buffer at 3× desired final concentration (50 mM Tris-HCl, 0.02 mg/mL BSA, 10 mM MgCl2, 0.1 mM Na3VO4, 1 mM EGTA, 75 μM ATP0.01% NP-40, 2 mM DTT in 10% glycerol/water). In a reaction plate were added rapidly 20 μL test article (or control) and 20 μL TEC 0.25 ng/μL. The plate was incubated for 30 minutes. To the reaction plate was added 20 μL of Pyk-2 0.5 ng/μL. The plate was incubated at room temperature for two hours.
(§2) From the reaction plate, 50 μL was transferred to the streptavidin coated plate. The capture plate was incubated at room temperature for 30 minutes then washed 6× with TBST. To the capture plate was added 100 μL/well of Cell Signaling anti-phospho tyrosine at a dilution of 1:3000 in 2% BSA/TBST. The plate was incubated for one hour at room temperature then washed 6× with TBST. To the capture plate was added 100 μL/well of Alkaline Phosphatase Tagged Goat anti Mouse Antibody at a dilution of 1:4000 in 2% BSA/TBST. The plate was incubated for one hour at room temperature then washed 6× with TBST. The fluorescent readout was initiated by the addition of 100 μL/well of Attophos reagent (6 mg/10 mL). The reading was done on the Perkin Elmer Envision system.

[2] = target: RET kinase (Homo sapiens, UniProt P07949); experiment: RET Kinase Activity Assay; assay type: biochemical; conditions: test concentration not given
Protocol: RET Kinase Activity Assay
as §1, with “RET” for “Tec”, “Maxwasorb” for “Maxisorb”
The test articles and controls (Staurosporine and Sutent) were prepared using the following assay buffer at 3× desired final concentration (50 mM […], 0.02 mg/mL BSA, 10 mM MgCl2, 0.1 mM Na3VO4, 1 mM EGTA, 75 μM ATP0.01% NP-40, 2 mM DTT in 10% glycerol/water). In a reaction plate, were added rapidly 20 μL test article (or control) and 20 μL RET (0.25 ng/μL final concentration). The plate was incubated for 15 minutes. To the reaction plate was added 20 μL of Pyk-2 (0.25 ng/μL final concentration). The plate was incubated at room temperature for one hour.
as §2, with “Envwasion” for “Envision”

[3] = tested on: DLD-1 cancer cells; experiment: MTS Assay; assay type: cell-based; conditions: Homo sapiens, DLD-1 cells, 72 h
Protocol: Cells were maintained at 37° C., 5% CO2 in DMEM media supplemented with 1% fetal bovine serum, penicillin/streptomycin and fungizone (Invitrogen). Cells were seeded into 96-well tissue culture plates at 3000 per well and cultured at 37° C. for 18 hours. Test compounds were dissolved and diluted to 300× in DMSO then diluted 1:40 in DMEM. Cells were incubated with test compounds for 72 hours followed by incubation with tetrazolium compound (3-(4,5-dimethylthiazol-2-yl)-5-(3-carboxymethoxyphenyl)-2-(4-sulfophenyl)-2H-tetrazolium, inner salt; MTS) and the electron coupling reagent, phenazine methosulfate (PMS) for 4 hours. […] The ability of compounds to inhibit cell growth in this assay is correlated with the reduction of dehydrogenase enzyme activity found in metabolically active cells. The measurement of the absorbance of the formazan was assessed using a Victor (Perkin Elmer) microplate reader at 492 nm. The calculated IC50 value is the concentration of the test compound that causes a 50% decrease in the absorbance.

Sequence of RET kinase (P07949 29-1114): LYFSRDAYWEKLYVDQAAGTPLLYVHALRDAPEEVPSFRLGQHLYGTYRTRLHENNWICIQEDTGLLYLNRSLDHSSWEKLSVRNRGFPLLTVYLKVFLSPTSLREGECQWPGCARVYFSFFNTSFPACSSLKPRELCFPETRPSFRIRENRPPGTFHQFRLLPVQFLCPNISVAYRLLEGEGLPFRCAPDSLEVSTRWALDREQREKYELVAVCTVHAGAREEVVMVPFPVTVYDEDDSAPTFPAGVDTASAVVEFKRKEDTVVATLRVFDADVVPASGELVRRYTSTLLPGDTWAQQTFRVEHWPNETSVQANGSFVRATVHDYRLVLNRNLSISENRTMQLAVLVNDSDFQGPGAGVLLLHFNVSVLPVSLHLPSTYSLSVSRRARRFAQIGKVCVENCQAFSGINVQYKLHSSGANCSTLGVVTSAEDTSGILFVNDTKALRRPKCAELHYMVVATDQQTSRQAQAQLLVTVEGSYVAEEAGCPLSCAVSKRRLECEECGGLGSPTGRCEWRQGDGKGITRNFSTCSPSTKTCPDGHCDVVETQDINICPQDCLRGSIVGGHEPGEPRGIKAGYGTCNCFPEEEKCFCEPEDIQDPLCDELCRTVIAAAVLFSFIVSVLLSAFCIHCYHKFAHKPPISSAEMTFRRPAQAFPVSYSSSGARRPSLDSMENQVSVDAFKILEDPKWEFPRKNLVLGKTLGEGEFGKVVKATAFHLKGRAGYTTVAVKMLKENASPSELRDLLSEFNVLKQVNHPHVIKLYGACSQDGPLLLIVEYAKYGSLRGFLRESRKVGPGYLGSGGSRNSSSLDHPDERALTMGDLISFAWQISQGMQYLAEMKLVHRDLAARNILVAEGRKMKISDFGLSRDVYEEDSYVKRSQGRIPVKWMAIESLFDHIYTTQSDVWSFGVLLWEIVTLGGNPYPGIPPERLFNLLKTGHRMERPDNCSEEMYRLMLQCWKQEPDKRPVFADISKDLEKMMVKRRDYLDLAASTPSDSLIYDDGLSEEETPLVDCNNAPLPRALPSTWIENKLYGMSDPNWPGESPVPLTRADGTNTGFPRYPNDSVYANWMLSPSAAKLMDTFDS

Row | SMILES | Kinase Activity (Tec kinase inhibition) [1] | Kinase Activity (RET kinase inhibition) [2] | inhibition at 10 µM [3]
1 | Brc1cnc2nnc(-c3ccccc3)n2c1 [Compound 1, 6-bromo-3-phenyl-[1,2,4]triazolo[4,3-a]pyrimidine] | A (A indicates 75-100% inhibition) |  | 
2 | CS(=O)(=O)c1ccc(-c2nnc3ncc(-c4ccccc4Oc4ccccc4)cn23)cc1 [Compound 11, 3-(4-(methylsulfonyl)phenyl)-6-(2-phenoxyphenyl)-[1,2,4]triazolo[4,3-a]pyrimidine] |  | A (A indicates 75-100% inhibition) | 
3 | c1cc(-c2cnc3nnc(-c4ccncc4)n3c2)c2cc[nH]c2c1 [Compound 4, 6-(1H-indol-4-yl)-3-(pyridin-4-yl)-[1,2,4]triazolo[4,3-a]pyrimidine] |  | A (A indicates 75-100% inhibition) | 
4 | COc1ccc(-c2cnc3nnc(-c4ccc(CC(C)C)cc4)n3c2)cc1 [Compound 8, 3-(4-isobutylphenyl)-6-(4-methoxyphenyl)-[1,2,4]triazolo[4,3-a]pyrimidine] | B (B indicates 50-75% inhibition) |  | 74%
5 | Brc1cnc2nnc(-c3ccc(-c4cccnc4)cc3)n2c1 [Compound 2, 6-bromo-3-(4-(pyridin-3-yl)phenyl)-[1,2,4]triazolo[4,3-a]pyrimidine] | B (B indicates 50-75% inhibition) |  | 
6 | CS(=O)(=O)c1ccc(-c2nnc3ncc(-c4ccc(Oc5ccccc5)cc4)cn23)cc1 [Compound 7, 3-(4-(methylsulfonyl)phenyl)-6-(4-phenoxyphenyl)-[1,2,4]triazolo[4,3-a]pyrimidine] | A (A indicates 75-100% inhibition) | A (A indicates 75-100% inhibition) | 98%
7 | CC(C)(C)c1ccc(-c2cnc3nnc(-c4ccc(C#N)cc4)n3c2)cc1 [Compound 9, 4-(6-(4-tert-butylphenyl)-[1,2,4]triazolo[4,3-a]pyrimidin-3-yl)benzonitrile] | B (B indicates 50-75% inhibition) | A (A indicates 75-100% inhibition) | 39%
8 | Cc1ccc(-c2cnc3nnc(-c4ccc(S(C)(=O)=O)cc4)n3c2)c2ccccc12 [Compound 10, 6-(4-methylnaphthalen-1-yl)-3-(4-(methylsulfonyl)phenyl)-[1,2,4]triazolo[4,3-a]pyrimidine] |  | A (A indicates 75-100% inhibition) | 
9 | c1ccc(-c2nnc3ncc(-c4cccc5[nH]ccc45)cn23)cc1 [Compound 3, 6-(1H-indol-4-yl)-3-phenyl-[1,2,4]triazolo[4,3-a]pyrimidine] | A (A indicates 75-100% inhibition) | A (A indicates 75-100% inhibition) | 98%
10 | c1ccc(Oc2ccc(-c3cnc4nnc(-c5ccncc5)n4c3)cc2)cc1 [Compound 6, 6-(4-phenoxyphenyl)-3-(pyridin-4-yl)-[1,2,4]triazolo[4,3-a]pyrimidine] | A (A indicates 75-100% inhibition) | A (A indicates 75-100% inhibition) | 
11 | c1ccc(Oc2ccccc2-c2cnc3nnc(-c4ccncc4)n3c2)cc1 [Compound 5, 6-(2-phenoxyphenyl)-3-(pyridin-4-yl)-[1,2,4]triazolo[4,3-a]pyrimidine] | B (B indicates 50-75% inhibition) | B (B indicates 50-75% inhibition) | 13%
